This experiment has as its system MV-4-11 cells. The experiment in a line: Gene expression microarray analysis (Affymetrix PrimeView) and GSEA. The format is cell-based, human. The arrangement: RFU PODN (11730768_x_at) / Fold change /veh PODN (11730768_x_at) / RFU LINC00158 (11744669_a_at) / Fold change /veh LINC00158 (11744669_a_at) / RFU DUSP10 (11751237_a_at) / Fold change /veh DUSP10 (11751237_a_at) / RFU ID3 (11757404_x_at) / Fold change /veh ID3 (11757404_x_at) / RFU PLEKHG5 (11737974_s_at) / Fold change /veh PLEKHG5 (11737974_s_at) / RFU LRRC4B (11730491_at) / Fold change /veh LRRC4B (11730491_at) / RFU GIMAP4 (11747438_a_at) / Fold change /veh GIMAP4 (11747438_a_at) / RFU KRT8 (11758183_x_at) / Fold change /veh KRT8 (11758183_x_at) / RFU CNN1 (11734310_a_at) / Fold change /veh CNN1 (11734310_a_at) / RFU VPS37D (11726825_at) / Fold change /veh VPS37D (11726825_at) / RFU C10orf10 (11716522_x_at) / Fold change /veh C10orf10 (11716522_x_at) / RFU KIR2DL2 /// KIR2DL4 /// KIR2DL5A /// KIR2DL5B /// KIR2DS1 /// KIR2DS2 /// KIR2DS3 /// KIR2DS4 /// KIR3DL3 /// KIR3DL3 /// KIR3DS1 (11738374_at) / Fold change /veh KIR2DL2 /// KIR2DL4 /// KIR2DL5A /// KIR2DL5B /// KIR2DS1 /// KIR2DS2 /// KIR2DS3 /// KIR2DS4 /// KIR3DL3 /// KIR3DL3 /// KIR3DS1 (11738374_at) / RFU C1QL1 (11718748_at) / Fold change /veh C1QL1 (11718748_at) / RFU TMPRSS4 (11747572_a_at) / Fold change /veh TMPRSS4 (11747572_a_at) / RFU HAMP (11756126_x_at) / Fold change /veh HAMP (11756126_x_at) / RFU RNFT2 (11725882_a_at) / Fold change /veh RNFT2 (11725882_a_at) / RFU NR4A2 (11747474_a_at) / Fold change /veh NR4A2 (11747474_a_at) / RFU ABCC12 (11746883_a_at) / Fold change /veh ABCC12 (11746883_a_at) / RFU TMEM136 (11760407_x_at) / Fold change /veh TMEM136 (11760407_x_at) / RFU CLDN22 /// WWC2 (11732394_at) / Fold change /veh CLDN22 /// WWC2 (11732394_at) / RFU HLA-DPB1 (11760878_x_at) / Fold change /veh HLA-DPB1 (11760878_x_at) / RFU SPINT1 (11716480_a_at) / Fold change /veh SPINT1 (11716480_a_at) / RFU GAP43 (11754022_s_at) / Fold change /veh GAP43 (11754022_s_at) / RFU A4GNT (11735810_at) / Fold change /veh A4GNT (11735810_at) / RFU PRB3 (11715151_x_at) / Fold change /veh PRB3 (11715151_x_at) / RFU TUBB4B (11761932_at) / Fold change /veh TUBB4B (11761932_at) / RFU CAPN14 (11732068_a_at) / Fold change /veh CAPN14 (11732068_a_at) / RFU TMCC2 (11721928_a_at) / Fold change /veh TMCC2 (11721928_a_at) / RFU IRGQ (11745062_a_at) / Fold change /veh IRGQ (11745062_a_at) / RFU FAM174B (11720279_a_at) / Fold change /veh FAM174B (11720279_a_at) / RFU TMPRSS4 (11748680_a_at) / Fold change /veh TMPRSS4 (11748680_a_at) / RFU FAM212B (11763350_a_at) / Fold change /veh FAM212B (11763350_a_at) / RFU PLEKHG5 (11743358_a_at) / Fold change /veh PLEKHG5 (11743358_a_at) / RFU ZSCAN30 (11745921_a_at) / Fold change /veh ZSCAN30 (11745921_a_at) / RFU CMKLR1 (11741424_a_at) / Fold change /veh CMKLR1 (11741424_a_at) / RFU LOC101060620 /// MAPK8IP1 (11723275_at) / Fold change /veh LOC101060620 /// MAPK8IP1 (11723275_at) / RFU SPTSSB (11747773_x_at) / Fold change /veh SPTSSB (11747773_x_at) / RFU PRSS12 (11739890_at) / Fold change /veh PRSS12 (11739890_at) / RFU BIN1 (11741810_x_at) / Fold change /veh BIN1 (11741810_x_at) / RFU WNT11 (11732464_a_at) / Fold change /veh WNT11 (11732464_a_at) / RFU C10orf10 (11716521_a_at) / Fold change /veh C10orf10 (11716521_a_at) / RFU C5orf56 (11738089_at) / Fold change /veh C5orf56 (11738089_at) / RFU CYB561 (11721691_x_at) / Fold change /veh CYB561 (11721691_x_at) / RFU ANKRD19P (11752326_a_at) / Fold change /veh ANKRD19P (11752326_a_at) / RFU OR2T12 /// OR2T33 /// OR2T8 (11738714_s_at) / Fold change /veh OR2T12 /// OR2T33 /// OR2T8 (11738714_s_at) / RFU VCAN (11748164_a_at) / Fold change /veh VCAN (11748164_a_at) / RFU JSRP1 (11732532_at) / Fold change /veh JSRP1 (11732532_at) / RFU KRTAP10-11 (11738290_x_at) / Fold change /veh KRTAP10-11 (11738290_x_at) / RFU MYO3A (11730013_a_at) / Fold change /veh MYO3A (11730013_a_at) / RFU EBF3 (11725865_a_at) / Fold change /veh EBF3 (11725865_a_at) / RFU CAMK2N1 (11719241_x_at) / Fold change /veh CAMK2N1 (11719241_x_at) / RFU C5orf56 (11738088_a_at) / Fold change /veh C5orf56 (11738088_a_at) / RFU OLFML3 (11715873_a_at) / Fold change /veh OLFML3 (11715873_a_at) / RFU LOC100653217 /// NTM (11731650_a_at) / Fold change /veh LOC100653217 /// NTM (11731650_a_at) / RFU MAPK11 (11762145_a_at) / Fold change /veh MAPK11 (11762145_a_at) / RFU FIZ1 (11724087_x_at) / Fold change /veh FIZ1 (11724087_x_at) / RFU OASL (11726364_x_at) / Fold change /veh OASL (11726364_x_at) / RFU SOX15 (11748057_x_at) / Fold change /veh SOX15 (11748057_x_at) / RFU CD79A (11719716_a_at) / Fold change /veh CD79A (11719716_a_at) / RFU HIST1H1D (11736915_at) / Fold change /veh HIST1H1D (11736915_at) / RFU CASKIN2 (11723855_a_at) / Fold change /veh CASKIN2 (11723855_a_at) / RFU LOC730098 (11760151_x_at) / Fold change /veh LOC730098 (11760151_x_at) / RFU OR4N2 (11742367_at) / Fold change /veh OR4N2 (11742367_at) / RFU PRRT2 (11749266_a_at) / Fold change /veh PRRT2 (11749266_a_at) / RFU SNX32 (11753110_a_at) / Fold change /veh SNX32 (11753110_a_at) / RFU CDHR5 (11726645_a_at) / Fold change /veh CDHR5 (11726645_a_at) / RFU RCAN1 (11760418_a_at) / Fold change /veh RCAN1 (11760418_a_at) / RFU FAM167A (11723789_a_at) / Fold change /veh FAM167A (11723789_a_at) / RFU FAM26E (11764081_at) / Fold change /veh FAM26E (11764081_at) / RFU ISYNA1 (11749810_s_at) / Fold change /veh ISYNA1 (11749810_s_at) / RFU ACY1 (11761880_at) / Fold change /veh ACY1 (11761880_at) / RFU 11764098_at / Fold change /veh 11764098_at / RFU SAMD14 (11745864_x_at) / Fold change /veh SAMD14 (11745864_x_at) / RFU NPB (11741838_a_at) / Fold change /veh NPB (11741838_a_at) / RFU TMPRSS6 (11731388_a_at) / Fold change /veh TMPRSS6 (11731388_a_at) / RFU KRTAP10-2 (11738614_at) / Fold change /veh KRTAP10-2 (11738614_at) / RFU ARHGAP8 /// PRR5-ARHGAP8 (11727945_x_at) / Fold change /veh ARHGAP8 /// PRR5-ARHGAP8 (11727945_x_at) / RFU KRTAP5-7 /// NADSYN1 (11734609_at) / Fold change /veh KRTAP5-7 /// NADSYN1 (11734609_at) / RFU RASL12 (11751679_a_at) / Fold change /veh RASL12 (11751679_a_at) / RFU CDKN2B (11736163_a_at) / Fold change /veh CDKN2B (11736163_a_at) / RFU PRF1 (11729649_at) / Fold change /veh PRF1 (11729649_at) / RFU, ZNF638 /// ZNF638-IT1 / Fold change vs veh, ZNF638 /// ZNF638-IT1 / RFU, PANK3 / Fold change vs veh, PANK3 / RFU, SH3YL1 / Fold change vs veh, SH3YL1 / RFU, ZEB2 / Fold change vs veh, ZEB2 / RFU, NRIP1 / Fold change vs veh, NRIP1 / RFU, PTTG1IP / Fold change vs veh, PTTG1IP / RFU, CAPN2 / Fold change vs veh, CAPN2 / RFU, MED14 / Fold change vs veh, MED14 / RFU, SNORA58 / Fold change vs veh, SNORA58 / RFU, C1orf63 / Fold change vs veh, C1orf63 / RFU, LRRFIP1 / Fold change vs veh, LRRFIP1 / RFU, NDUFAF7 / Fold change vs veh, NDUFAF7 / RFU, SLC12A2 / Fold change vs veh, SLC12A2 / RFU, IBTK / Fold change vs veh, IBTK / RFU, ESF1 / Fold change vs veh, ESF1 / Fold change vs veh, TMEM50B / RFU, TAOK1 / Fold change vs veh, TAOK1 / RFU, ACBD3 / Fold change vs veh, ACBD3 / RFU, TMA16 / Fold change vs veh, TMA16 / RFU, RWDD3 / Fold change vs veh, RWDD3 / RFU, BCAT1 / Fold change vs veh, BCAT1 / RFU, EDEM3 / Fold change vs veh, EDEM3 / RFU, TMEM33 / Fold change vs veh, TMEM33 / RFU, WDR75 / Fold change vs veh, WDR75 / RFU, AHCTF1 / Fold change vs veh, AHCTF1 / RFU, TFRC / Fold change vs veh, TFRC / RFU, ZDHHC17 / Fold change vs veh, ZDHHC17 / RFU, NOM1 / Fold change vs veh, NOM1 / RFU, ARL8B / Fold change vs veh, ARL8B / RFU, ZBTB11 / Fold change vs veh, ZBTB11 / RFU, TAMM41 / Fold change vs veh, TAMM41 / RFU, KIAA1704 /// LOC100996395 / Fold change vs veh, KIAA1704 /// LOC100996395 / RFU, ING1 / Fold change vs veh, ING1 / RFU, TRMT61B / Fold change vs veh, TRMT61B / RFU, FUBP3 / Fold change vs veh, FUBP3 / RFU, TP53 / Fold change vs veh, TP53 / RFU, TNKS2 / Fold change vs veh, TNKS2 / RFU, ZFP14 / Fold change vs veh, ZFP14 / RFU, ACTR2 / Fold change vs veh, ACTR2 / RFU, PPP3R1 / Fold change vs veh, PPP3R1 / RFU, PIK3R1 / Fold change vs veh, PIK3R1 / RFU, HNRNPA1 / Fold change vs veh, HNRNPA1 / RFU, RNF170 / Fold change vs veh, RNF170 / RFU, ZNF28 / Fold change vs veh, ZNF28 / RFU, RNGTT / Fold change vs veh, RNGTT / RFU, OGT / Fold change vs veh, OGT / RFU, BRD1 / Fold change vs veh, BRD1 / RFU, MARS / Fold change vs veh, MARS / RFU, ZNF655 / Fold change vs veh, ZNF655 / RFU, FAHD1 / Fold change vs veh, FAHD1 / RFU, BDP1 / Fold change vs veh, BDP1 / RFU, LRRCC1 / Fold change vs veh, LRRCC1 / RFU, ARID1A / Fold change vs veh, ARID1A / RFU, ZNF146 / Fold change vs veh, ZNF146 / RFU, ZNF330 / Fold change vs veh, ZNF330 / RFU, GPN3 / Fold change vs veh, GPN3 / RFU, C9orf123 / Fold change vs veh, C9orf123 / RFU, N4BP2L2 / Fold change vs veh, N4BP2L2 / RFU, ARFIP1 / Fold change vs veh, ARFIP1 / RFU, FAM179B / Fold change vs veh, FAM179B / RFU, BCL10 / Fold change vs veh, BCL10 / RFU, UHRF1BP1L / Fold change vs veh, UHRF1BP1L / RFU, BET1 / Fold change vs veh, BET1 / RFU, CNOT2 / Fold change vs veh, CNOT2 / RFU, ZNF268 / Fold change vs veh, ZNF268 / Fold change vs veh, ZNF507 / RFU, DGCR2 / Fold change vs veh, DGCR2 / RFU, WDSUB1 / Fold change vs veh, WDSUB1 / Fold change vs veh, HSP90B1 /// MIR3652 / RFU, ADSS / Fold change vs veh, ADSS / RFU, GK / Fold change vs veh, GK / RFU, ZNF148 / Fold change vs veh, ZNF148 / RFU, TAF9 / Fold change vs veh, TAF9 / RFU, SLC1A5 / Fold change vs veh, SLC1A5 / RFU, SLMO2 / Fold change vs veh, SLMO2 / RFU, ABCC4 / Fold change vs veh, ABCC4 / RFU, LOC101060439 /// RAP1B / Fold change vs veh, LOC101060439 /// RAP1B / RFU, RFX7 / Fold change vs veh, RFX7 / RFU, GTPBP10 / Fold change vs veh, GTPBP10 / RFU, CNEP1R1 / Fold change vs veh, CNEP1R1 / RFU, BIVM-ERCC5 /// ERCC5 / Fold change vs veh, BIVM-ERCC5 /// ERCC5 / RFU, ILF3 / Fold change vs veh, ILF3 / RFU 11762660_at / Fold change /veh 11762660_at / RFU VCAN (11757783_s_at) / Fold change /veh VCAN (11757783_s_at) / RFU DDX43 (11728927_at) / Fold change /veh DDX43 (11728927_at) / RFU KRT8 (11758188_x_at) / Fold change /veh KRT8 (11758188_x_at) / RFU NKD1 (11759106_at) / Fold change /veh NKD1 (11759106_at) / RFU SRD5A1 (11742802_a_at) / Fold change /veh SRD5A1 (11742802_a_at) / RFU TPSAB1 /// TPSB2 (11721975_s_at) / Fold change /veh TPSAB1 /// TPSB2 (11721975_s_at) / RFU GSTM3 (11746129_a_at) / Fold change /veh GSTM3 (11746129_a_at) / RFU IL23R (11737362_x_at) / Fold change /veh IL23R (11737362_x_at) / RFU TMEM51 (11727254_a_at) / Fold change /veh TMEM51 (11727254_a_at) / RFU PIWIL2 (11732686_x_at) / Fold change /veh PIWIL2 (11732686_x_at) / RFU ORM1 (11744905_x_at) / Fold change /veh ORM1 (11744905_x_at) / RFU CCDC152 (11743942_at) / Fold change /veh CCDC152 (11743942_at) / RFU ECM1 (11717891_a_at) / Fold change /veh ECM1 (11717891_a_at) / RFU IL23R (11748794_a_at) / Fold change /veh IL23R (11748794_a_at) / RFU TNFAIP8L3 (11732012_x_at) / Fold change /veh TNFAIP8L3 (11732012_x_at) / RFU MBOAT4 (11741988_at) / Fold change /veh MBOAT4 (11741988_at) / RFU 11764193_at / Fold change /veh 11764193_at / RFU TMEM53 (11763286_at) / Fold change /veh TMEM53 (11763286_at) / RFU MAGEB2 (11727129_at) / Fold change /veh MAGEB2 (11727129_at) / RFU TMEM200A (11744735_a_at) / Fold change /veh TMEM200A (11744735_a_at) / RFU CCDC152 (11751479_a_at) / Fold change /veh CCDC152 (11751479_a_at) / RFU FAM211A (11726209_a_at) / Fold change /veh FAM211A (11726209_a_at) / RFU RGS16 (11746705_a_at) / Fold change /veh RGS16 (11746705_a_at) / RFU VCAN (11755009_s_at) / Fold change /veh VCAN (11755009_s_at) / RFU RHOB (11743442_s_at) / Fold change /veh RHOB (11743442_s_at) / RFU RGS16 (11720943_a_at) / Fold change /veh RGS16 (11720943_a_at) / RFU RGS16 (11720944_at) / Fold change /veh RGS16 (11720944_at) / RFU, VPS4B / Fold change vs veh, VPS4B / RFU, CREB1 / Fold change vs veh, CREB1 / RFU, DNAJC13 / Fold change vs veh, DNAJC13 / RFU, GNAQ / Fold change vs veh, GNAQ / RFU, CDK5R1 / Fold change vs veh, CDK5R1 / RFU, ZRANB3 / Fold change vs veh, ZRANB3 / RFU, CUL4A / Fold change vs veh, CUL4A / RFU, CCNY / Fold change vs veh, CCNY / RFU, UFL1 / Fold change vs veh, UFL1 / RFU, COG3 / Fold change vs veh, COG3 / RFU, DIAPH2 / Fold change vs veh, DIAPH2 / RFU, SKA2 / Fold change vs veh, SKA2 / RFU, AFF3 / Fold change vs veh, AFF3 / RFU, LMF1 / Fold change vs veh, LMF1 / RFU, IPO11 / Fold change vs veh, IPO11 / RFU, DFFB / Fold change vs veh, DFFB / RFU, FOXP1 / Fold change vs veh, FOXP1 / RFU, CARD8 / Fold change vs veh, CARD8 / RFU, STRN3 / Fold change vs veh, STRN3 / RFU, ADK / Fold change vs veh, ADK / RFU, RASSF2 / Fold change vs veh, RASSF2 / RFU, WIPF1 / Fold change vs veh, WIPF1 / RFU, LARP1B / Fold change vs veh, LARP1B / RFU, RASA1 / Fold change vs veh, RASA1 / RFU, RB1 / Fold change vs veh, RB1 / RFU, PPFIA1 / Fold change vs veh, PPFIA1 / RFU, MAT2A / Fold change vs veh, MAT2A / RFU, CCT5 / Fold change vs veh, CCT5 / RFU, WDR92 / Fold change vs veh, WDR92 / RFU, CUX1 / Fold change vs veh, CUX1 / RFU, TTC7A / Fold change vs veh, TTC7A / RFU, TMEM135 / Fold change vs veh, TMEM135 / RFU, DEPTOR / Fold change vs veh, DEPTOR / RFU, CPM / Fold change vs veh, CPM / RFU, DNAJB6 / Fold change vs veh, DNAJB6 / RFU, CACNA2D3 / Fold change vs veh, CACNA2D3 / RFU, DTX4 / Fold change vs veh, DTX4 / RFU, TFCP2 / Fold change vs veh, TFCP2 / RFU, GMCL1 /// GMCL1P1 / Fold change vs veh, GMCL1 /// GMCL1P1 / RFU, AEBP2 / Fold change vs veh, AEBP2 / RFU, SNHG1 /// SNORD22 /// SNORD25 /// SNORD26 /// SNORD27 /// SNORD28 /// SNORD29 /// SNORD31 / Fold change vs veh, SNHG1 /// SNORD22 /// SNORD25 /// SNORD26 /// SNORD27 /// SNORD28 /// SNORD29 /// SNORD31 / Fold change (Aza/veh), C12orf56 (ProbeSet 11735607_a_at) / Fold change (ACY-1035/veh), C12orf56 (ProbeSet 11735607_a_at) / Fold change (Aza/veh), FGFR1OP (ProbeSet 11751329_s_at) / Fold change (ACY-1035/veh), FGFR1OP (ProbeSet 11751329_s_at) / Fold change (Aza/veh), VPS36 (ProbeSet 11739960_a_at) / Fold change (ACY-1035/veh), VPS36 (ProbeSet 11739960_a_at) / RFU SYPL1 (11715823_x_at) / Fold change /veh SYPL1 (11715823_x_at) / RFU IGFBP7 (11715501_s_at) / Fold change /veh IGFBP7 (11715501_s_at) / RFU REEP3 (11722064_at) / Fold change /veh REEP3 (11722064_at) / RFU IGLL1 (11728026_x_at) / Fold change /veh IGLL1 (11728026_x_at): dose or concentration left out as unconfirmed. The note with it: MV-4-11 cells, 48 hours.

Results on 1 molecule are retold here after article PMC5218480 (PLoS ONE, 2017).

Each structure is given as a SMILES string.

Consider `Nc1ncn([C@@H]2O[C@H](CO)[C@@H](O)[C@H]2O)c(=O)n1` [azacitidine], for which the “Fold change /veh MYO3A (11730013_a_at)” value is on record as 0.99.
